Results published in article PMC10578352, “Identification of a Protein Arginine Methyltransferase 7 (PRMT7)/Protein Arginine Methyltransferase 9 (PRMT9) Inhibitor” (Journal of Medicinal Chemistry, 2023).
“Also recorded” adds a separate entry of the source.

How the values were obtained:
[1] = tested on: SET-domain-containing enzymes; assay: Selectivity against the panel of SET-domain-containing KMTs; type: biochemical, human; conditions: highest tested concentration 100 μM
Experimental: . […] After incubation for 60 min at 30 °C, the reaction mixture was delivered to filter paper for detection (as assessed by scintillation). […] Data were analyzed using Excel and GraphPad Prism 6.0 software (GraphPad Software Inc., San Diego, CA). Values obtained for each compound are mean ± SD determined for two separate experiments.

[2] = biological target: T1, MLL1/KMT2A (5 component complex) (Homo sapiens, UniProt Q03164); assay: HotSpot KMT activity assay, MLL1; type: biochemical; conditions: read-out: % MLL1 residual activity
T1 construct: MLL1 residues 3745–3969, C-terminus; His (N); purchased Reaction Biology Corporation
From the text: ; MW = 35.4 kDa; Genbank Accession # NM_018489), or the human recombinant EZH2-containing five-member polycomb repressive complex 2 (including EZH2 residues 2–746, AEBP2 2–517, EED 2–441, RbAp48 2–425, SUZ12 2–739; all full-length; with N-terminal Flag-tag on EED and N-terminal His-tag on all others; MW = 333.8 kDa; Genbank Accession # NM_001203247, NM_001114176, NM_003797, NM_005610, NM_015355), or the human recombinant G9a (residues 913–1193, C-terminus; with an N-terminal His-tag; MW = 34.6 kDa; Genbank Accession # NM_006709.3), or the human recombinant MLL1 complex (including MLL1 residues 3745–3969, C-terminus, WDR5 22–334, C-terminus, RbBP5 1–538, C-terminus, ASH2L 2–534, C-terminus, DPY-30 1–99, C-terminus; N-terminal His-tag on all subunits; MW = 212.0 kDa; Genbank Accession # NM_005933, NM_017588, NM_005057, NM_001105214, NM_0325742), or the human recombinant SET7/9 (residues 2–366, C-terminus; with a N-terminal GST-tag and a C-terminal His-tag; MW = 68.5 kDa; Genbank Accession # NM_030648), or the human recombinant SMYD3 (residues 2–428, C-terminus; C-terminal His-tag; MW = 50.1 kDa; Genbank Accession # NM_001167740), or the human recombinant SUV39H2 (residues 46–410, C-terminus; N-terminal fusion protein with a C-terminal His-tag; MW = 98.8 kDa; GenBank Accession No. NM_001193424), or the human recombinant DOT1L (residues 1–416; N-terminal GST-tag; MW = 80.0 kDa; Genbank Accession # NM_032482) was added to a solution of the proper substrate (oligo nucleosomes for ASH1L, MLL1 complex, and DOT1L, final concentration 0.05 mg/mL; core histone for EZH2 complex and SET7/9, final concentration 0.05 mg/mL; histone H3 for SUV39H2, final concentration 5 μM; histone H3 1–21 for G9a, final concentration 2.5 μM) in freshly prepared reaction buffer (50 mM Tris-HCl (pH 8.5), 5 mM MgCl2, 50 mM NaCl, 1 mM DTT, 1 mM PMSF, 1% DMSO) and gently mixed. […] After incubation for 60 min at 30 °C, the reaction mixture was delivered to filter paper for detection (as assessed by scintillation). […] Values obtained for each compound are mean ± SD determined for two separate experiments.

`COC(=O)c1cc(O)c2cc(NC(=O)NCCCNC(=N)NC[C@H]3O[C@@H](n4cnc5c(N)ncnc54)[C@H](O)[C@@H]3O)cc(C(F)(F)F)c2c1` [1j, Methyl 6-(3-(3-(3-(((2R,3S,4R,5R)-5-(6-Amino-9H-purin-9-yl)-3,4-dihydroxytetrahydrofuran-2-yl)methyl)guanidino)propyl)ureido)-4-hydroxy-8-(trifluoromethyl)-2-naphthoate] was tested, and the “inhibition of SET-domain-containing enzymes (in words)” value [1] was “none of the SET-domain-containing enzymes was inhibited; also recorded: not inhibited”, the remaining activity at 10 µM ([2]; 10 μM) was 90.5 ± 2.83% and the remaining activity at 100 µM ([2]; 100 μM) was 76.9 ± 3.96%.
